Laboratory results reported in patent publication US20210403435A1, “HERBICIDAL COMPOUNDS” (SYNGENTA CROP PROTECTION AG, priority 2018, published 2021).

How the values were obtained:
Assay in all cases: Post-emergence efficacy, glasshouse, evaluated after 13 days
Assay type in all cases: in vivo
Eleusine indica (ELEIN) = conditions: Eleusine indica, 312 h; post-emergence application, 500 g/Ha, evaluated after 13 days; read-out: Control of weed species ELEIN (100=total damage to plant; 0=no damage to plant)
Procedure: (§1) Seeds of a variety of test species were sown in standard soil in pots. After cultivation for 14 days (post-emergence) under controlled conditions in a glasshouse (at 24/16° C., day/night; 14 hours light; 65% humidity), the plants were sprayed with an aqueous spray solution derived from the dissolution of the technical active ingredient formula (I) in a small amount of acetone and a special solvent and emulsifier mixture referred to as IF50 (11.12% Emulsogen EL360 TM+44.44% N-methylpyrrolidone+44.44% Dowanol DPM glycol ether), to create a 50 g/l solution which was then diluted to required concentration using 0.25% or 1% Empicol ESC70 (Sodium lauryl ether sulphate)+1% ammonium sulphate as diluent.
(§2) The test plants were then grown in a glasshouse under controlled conditions (at 24/16° C., day/night; 14 hours light; 65% humidity) and watered twice daily. After 13 days the test was evaluated (100=total damage to plant; 0=no damage to plant).
(§3) Ipomoea hederacea (IPOHE), Euphorbia heterophylla (EPHHL), Chenopodium album (CHEAL), Amaranthus palmeri (AMAPA), Lolium perenne (LOLPE), Digitaria sanguinalis (DIGSA), Eleusine indica (ELEIN), Echinochloa crus-galli (ECHCG), Setaria faberi (SETFA)

[1] = tested on: Digitaria sanguinalis (DIGSA); conditions: Digitaria sanguinalis, 312 h; post-emergence application, 500 g/Ha, evaluated after 13 days; read-out: Control of weed species DIGSA (100=total damage to plant; 0=no damage to plant)
Procedure: as §1, §2, §3

[2] = tested on: Echinochloa crus-galli (ECHCG); conditions: Echinochloa crus-galli, 312 h; post-emergence application, 500 g/Ha, evaluated after 13 days; read-out: Control of weed species ECHCG (100=total damage to plant; 0=no damage to plant)
Procedure: as §1, §2, §3

[3] = tested on: Ipomoea hederacea (IPOHE); conditions: Ipomoea hederacea, 312 h; post-emergence application, 500 g/Ha, evaluated after 13 days; read-out: Control of weed species IPOHE (100=total damage to plant; 0=no damage to plant)
Procedure: as §1, §2, §3

Lolium perenne (LOLPE) = conditions: Lolium perenne, 312 h; post-emergence application, 500 g/Ha, evaluated after 13 days; read-out: Control of weed species LOLPE (100=total damage to plant; 0=no damage to plant)
Procedure: as §1, §2, §3

[4] = tested on: Chenopodium album (CHEAL); conditions: Chenopodium album, 312 h; post-emergence application, 500 g/Ha, evaluated after 13 days; read-out: Control of weed species CHEAL (100=total damage to plant; 0=no damage to plant)
Procedure: as §1, §2, §3

[5] = tested on: Euphorbia heterophylla (EPHHL); conditions: Euphorbia heterophylla, 312 h; post-emergence application, 500 g/Ha, evaluated after 13 days; read-out: Control of weed species EPHHL (100=total damage to plant; 0=no damage to plant)
Procedure: as §1, §2, §3

[6] = tested on: Amaranthus palmeri (AMAPA); conditions: Amaranthus palmeri, 312 h; post-emergence application, 500 g/Ha, evaluated after 13 days; read-out: Control of weed species AMAPA (100=total damage to plant; 0=no damage to plant)
Procedure: as §1, §2, §3

Setaria faberi (SETFA) = conditions: Setaria faberi, 312 h; post-emergence application, 500 g/Ha, evaluated after 13 days; read-out: Control of weed species SETFA (100=total damage to plant; 0=no damage to plant)
Procedure: as §1, §2, §3

SMILES | pest or weed control at 500 g/ha (Eleusine indica (ELEIN)) | pest or weed control at 500 g/ha [1] | pest or weed control at 500 g/ha [2] | pest or weed control at 500 g/ha [3] | pest or weed control at 500 g/ha (Lolium perenne (LOLPE)) | pest or weed control at 500 g/ha [4] | pest or weed control at 500 g/ha [5] | pest or weed control at 500 g/ha [6] | pest or weed control at 500 g/ha (Setaria faberi (SETFA))
CC#CCNC(=O)c1cc[n+](CCC(=O)O)nc1 [Compound A86] | 90% | 100% | 100% | 20% | 60% | 90% | 100% | 100% | 100%
CC1(NC(=O)c2cc[n+](CCNS(=O)(=O)[O-])nc2)CC1 [Compound A99] | 70% | 100% | 60% | 30% | 40% | 40% | 40% | 50% | 90%
C=CCNC(=O)c1cc[n+](CCCOS(=O)(=O)[O-])nc1 [Compound A125] | 30% | 60% | 70% | 50% | 60% | 60% | 60% | 30% | 50%
O=C(Nc1ccccc1O)c1cc[n+](CCS(=O)(=O)[O-])nc1 [Compound A84, 2-[4-[(2-hydroxyphenyl)carbamoyl]pyridazin-1-ium-1-yl]ethanesulfonate] | 10% | 50% | 20% | 10% | 0% | 30% | 30% | 0% | 20%
CCNC(=O)c1cc[n+](CCCS(=O)(=O)[O-])nc1 [Compound A76] | 60% | 70% | 30% | 30% | 70% | 70% | 100% | 40% | 30%
CCNC(=O)c1cc[n+](CCNS(=O)(=O)C(F)(F)F)nc1 [Compound A73] | 90% | 90% | 80% | 80% | 60% | 90% | 90% | 100% | 60%
CCNC(=O)c1cc[n+](CCCC(=O)O)nc1 [Compound A74] | 80% | 80% | 60% | 40% | 80% | 90% | 60% | 100% | 70%
CC(C)CNC(=O)c1cc[n+](CCS(=O)(=O)[O-])nc1 [Compound A37] | 60% | 70% | 50% | 50% | 50% | 80% | 70% | 100% | 70%
CC(C)(CO)NC(=O)c1cc[n+](CCC(=O)O)nc1 [Compound A100] | 40% | 70% | 60% | 20% | 50% | 20% | 30% | 60% | 90%
O=C(O)CC[n+]1ccc(C(=O)Nc2ccccc2)cn1 [Compound A33] | 90% | 60% | 60% | 30% | 70% | 80% | 50% | 100% | 60%
O=C(O)CC[n+]1ccc(C(=O)NCCO)cn1 [Compound A44] | 30% | 100% | 90% | 100% | 30% | 100% | 100% | 100% | 100%
CC(O)CNC(=O)c1cc[n+](CCC(=O)O)nc1 (stereo not drawn) [Compound A128] | 90% | 100% | 40% | 30% | 80% | 90% | 100% | 100% | 90%
O=C(O)CC[n+]1ccc(C(=O)Nc2ccc(F)cc2F)cn1 [Compound A106] | 70% | 40% | 10% | 30% | 50% | 50% | 60% | 100% | 90%
O=C(NCc1ccccc1)c1cc[n+](CCS(=O)(=O)[O-])nc1 [Compound A20] | 80% | 60% | 60% | 50% | 30% | 100% | 80% | 100% | 90%
CN(C)C(=O)c1cc[n+](CCCS(=O)(=O)O)nc1 [Compound A3] | 10% | 20% | 20% | 20% | 10% | 70% | 90% | 90% | 20%
COCCNC(=O)c1cc[n+](CCNS(=O)(=O)[O-])nc1 [Compound A139] | 100% | 90% | 70% | 40% | 20% | 100% | 80% | 90% | 70%
CC(C)NC(=O)c1cc[n+](CCS(=O)(=O)O)nc1 [Compound A5] | 40% | 50% | 60% | 60% | 50% | 70% | 30% | 90% | 40%
CC(C#N)NC(=O)c1cc[n+](CCC(=O)O)nc1 (stereo not drawn) [Compound A85] | 100% | 100% | 90% | 30% | 60% | 90% | 100% | 100% | 90%
